Experimental data: article PMC9744210, “Discovery of the SHP2 allosteric inhibitor 2-((3R,4R)-4-amino-3-methyl-2-oxa-8-azaspiro[4.5]decan-8-yl)-5-(2,3-dichlorophenyl)-3-methylpyrrolo[2,1-f][1,2,4] triazin-4(3H)-one” (Journal of Enzyme Inhibition and Medicinal Chemistry, 2022)

Target: T1, SHP2 (Homo sapiens, UniProt Q06124)
T1 construct: 6xHis (N, cleaved yes); TEV cleavage site (N, cleaved yes); made in house; host or cells: E. coli BL21 (DE3)
T1 sequence (Q06124 1-525): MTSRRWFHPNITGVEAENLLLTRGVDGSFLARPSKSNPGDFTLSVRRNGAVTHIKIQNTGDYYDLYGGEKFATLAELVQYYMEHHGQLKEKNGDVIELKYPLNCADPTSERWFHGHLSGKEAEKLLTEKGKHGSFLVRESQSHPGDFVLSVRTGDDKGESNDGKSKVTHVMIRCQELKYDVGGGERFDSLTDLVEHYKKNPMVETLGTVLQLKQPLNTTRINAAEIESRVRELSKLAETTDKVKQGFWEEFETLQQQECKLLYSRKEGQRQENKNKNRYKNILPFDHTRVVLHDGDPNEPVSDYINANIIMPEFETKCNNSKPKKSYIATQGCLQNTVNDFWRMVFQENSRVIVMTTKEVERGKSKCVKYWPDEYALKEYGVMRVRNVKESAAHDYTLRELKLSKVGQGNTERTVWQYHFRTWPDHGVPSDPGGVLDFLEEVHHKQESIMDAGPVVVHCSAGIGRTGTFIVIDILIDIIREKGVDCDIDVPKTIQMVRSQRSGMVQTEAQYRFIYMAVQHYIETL
Assay: SHP2 phosphatase activity inhibition, DiFMUP prompt fluorescence assay
Assay type: biochemical
Details: 0.5 nM SHP2 activated with 0.125 µM bis-tyrosyl-phosphorylated peptide; substrate DiFMUP 200 μM; room temperature; read-out: Inhibitory activity IC50
Experimental: The measurement of the catalytic activity of SHP2 is using the surrogate substrate 6,8-difluoro-4-methylumbelliferyl phosphate (DiFMUP) in a prompt fluorescence assay format.[14]^,[22]^,[23] In special, the phosphatase reaction was performed at room temperature in a 384-well black plate (Corning) with a total volume of 20 μL. The assay buffer contained 60 mM HEPES, pH7.2, 75 mM NaCl, 75 mM KCl, 1 mM EDTA, 5 mM DTT, and 0.05% Triton X-100.
After 60 min incubation at room temperature, the surrogate substrate DiFMUP (Thermo, Cat: D6567, 200 μM) was added to the catalytic reaction. After 30 min incubation at room temperature, the fluorescence signal was measured at the excitation and emission wavelengths of 340 nm and 450 nm respectively with a plate reader (Tecan Spark). The curves of the inhibitor dose–response were analysed using normalised IC50 regression curve fitting with control-based normalisation.

Structure (SMILES)	IC50
C[C@H]1OCC2(CCN(c3nn4cnc(-c5cccc(Cl)c5Cl)c4c(=O)n3C)CC2)[C@H]1N [PB17-021-01]	104 nM
C[C@H]1OCC2(CCN(c3nn4ccc(-c5cccc(Cl)c5Cl)c4c(=O)n3C)CC2)[C@H]1N [PB17-026-01, 2-((3R,4R)-4-amino-3-methyl-2-oxa-8-azaspiro[4.5]decan-8-yl)-5–(2,3-dichlorophenyl)-3-methylpyrrolo[2,1-f][1,2,4]triazin-4(3H)-one]	38.9 nM
C[C@H]1OCC2(CCN(c3nn4ccc(-c5ccncc5)c4c(=O)n3C)CC2)[C@H]1N [PB17-035-01]	168 nM
Cn1c(N2CCC(C)(CN)CC2)nn2ccc(-c3cccc(Cl)c3Cl)c2c1=O [PB17-036-01]	645 nM
